Measured values reported in article PMC4457528, “Identification of Novel Small Molecule Inhibitors of Oncogenic RET Kinase” (PLoS ONE, 2015).
Where two headings read alike, the source gives them in different places.

Legend:
Test in all cases: KinomeScan kinase panel, single concentration 10 µM
Type in all cases: binding
KinomeScan kinase panel [1] = target: T1, KinomeScan kinase panel (Homo sapiens, UniProt O00329); settings: PIK3CD, 10 µM; read-out: score (%)
T1 construct: purchased DiscoveRx (KinomeScan)
T1 sequence (O00329 1-1044): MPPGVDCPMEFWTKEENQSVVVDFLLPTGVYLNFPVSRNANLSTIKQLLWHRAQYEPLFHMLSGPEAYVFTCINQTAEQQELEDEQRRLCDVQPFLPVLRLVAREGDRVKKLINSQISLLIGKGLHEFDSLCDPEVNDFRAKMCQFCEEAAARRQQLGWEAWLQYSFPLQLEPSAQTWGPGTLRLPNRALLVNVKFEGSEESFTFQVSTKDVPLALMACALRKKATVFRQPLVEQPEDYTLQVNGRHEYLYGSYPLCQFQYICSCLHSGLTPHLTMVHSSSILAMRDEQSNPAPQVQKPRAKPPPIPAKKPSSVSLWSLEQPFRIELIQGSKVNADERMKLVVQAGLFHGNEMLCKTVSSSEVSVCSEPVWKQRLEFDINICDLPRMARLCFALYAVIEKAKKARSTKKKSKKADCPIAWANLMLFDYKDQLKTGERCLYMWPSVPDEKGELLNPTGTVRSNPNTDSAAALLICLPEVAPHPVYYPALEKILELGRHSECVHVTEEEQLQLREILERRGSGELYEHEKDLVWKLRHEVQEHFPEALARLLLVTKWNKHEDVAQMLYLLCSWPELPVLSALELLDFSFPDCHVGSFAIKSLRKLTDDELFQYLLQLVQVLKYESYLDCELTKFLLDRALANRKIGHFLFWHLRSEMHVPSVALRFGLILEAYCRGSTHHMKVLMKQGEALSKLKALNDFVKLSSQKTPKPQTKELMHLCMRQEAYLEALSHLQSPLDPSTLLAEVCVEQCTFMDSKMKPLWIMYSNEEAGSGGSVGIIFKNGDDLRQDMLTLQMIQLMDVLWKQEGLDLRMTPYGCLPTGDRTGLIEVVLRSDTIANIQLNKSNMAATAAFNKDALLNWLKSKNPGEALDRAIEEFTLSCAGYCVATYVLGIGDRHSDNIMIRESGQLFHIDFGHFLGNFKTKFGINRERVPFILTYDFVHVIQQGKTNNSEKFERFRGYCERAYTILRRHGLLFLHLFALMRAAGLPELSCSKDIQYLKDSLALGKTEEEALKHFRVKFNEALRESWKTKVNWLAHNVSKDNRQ

KinomeScan kinase panel [2] = target: T2, KinomeScan kinase panel (Homo sapiens, UniProt P29322); settings: EPHA8, 10 µM; read-out: score (%)
T2 construct: purchased DiscoveRx (KinomeScan)
T2 sequence (P29322 28-1005): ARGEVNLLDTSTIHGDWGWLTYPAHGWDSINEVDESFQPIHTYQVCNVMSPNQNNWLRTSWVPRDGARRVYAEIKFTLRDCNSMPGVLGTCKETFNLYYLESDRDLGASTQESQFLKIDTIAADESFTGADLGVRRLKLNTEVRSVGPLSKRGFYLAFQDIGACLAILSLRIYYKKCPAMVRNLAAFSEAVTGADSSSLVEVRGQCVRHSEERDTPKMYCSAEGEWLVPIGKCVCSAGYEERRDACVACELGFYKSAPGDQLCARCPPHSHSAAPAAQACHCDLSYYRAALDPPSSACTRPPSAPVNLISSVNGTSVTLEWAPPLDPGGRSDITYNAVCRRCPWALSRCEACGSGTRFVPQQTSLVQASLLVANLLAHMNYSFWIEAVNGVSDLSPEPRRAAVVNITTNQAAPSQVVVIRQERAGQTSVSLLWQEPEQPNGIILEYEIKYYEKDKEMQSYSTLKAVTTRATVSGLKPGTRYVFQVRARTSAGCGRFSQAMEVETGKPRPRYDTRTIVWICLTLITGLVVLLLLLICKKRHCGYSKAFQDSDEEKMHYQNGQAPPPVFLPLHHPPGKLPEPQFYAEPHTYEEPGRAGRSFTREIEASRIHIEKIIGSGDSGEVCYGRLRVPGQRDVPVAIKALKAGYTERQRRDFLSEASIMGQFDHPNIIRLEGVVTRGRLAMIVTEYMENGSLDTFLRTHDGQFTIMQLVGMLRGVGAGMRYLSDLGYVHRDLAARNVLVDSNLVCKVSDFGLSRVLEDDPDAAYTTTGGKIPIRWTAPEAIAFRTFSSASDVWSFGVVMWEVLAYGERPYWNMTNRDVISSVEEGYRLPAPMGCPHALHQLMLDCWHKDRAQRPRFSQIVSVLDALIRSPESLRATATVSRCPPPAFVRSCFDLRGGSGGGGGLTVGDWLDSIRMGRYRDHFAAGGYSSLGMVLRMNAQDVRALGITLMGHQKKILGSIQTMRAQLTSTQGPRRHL

KinomeScan kinase panel [3] = target: T3, KinomeScan kinase panel (Homo sapiens, UniProt Q13557); settings: CAMK2D, 10 µM; read-out: score (%)
T3 construct: purchased DiscoveRx (KinomeScan)
T3 sequence (Q13557 whole entry): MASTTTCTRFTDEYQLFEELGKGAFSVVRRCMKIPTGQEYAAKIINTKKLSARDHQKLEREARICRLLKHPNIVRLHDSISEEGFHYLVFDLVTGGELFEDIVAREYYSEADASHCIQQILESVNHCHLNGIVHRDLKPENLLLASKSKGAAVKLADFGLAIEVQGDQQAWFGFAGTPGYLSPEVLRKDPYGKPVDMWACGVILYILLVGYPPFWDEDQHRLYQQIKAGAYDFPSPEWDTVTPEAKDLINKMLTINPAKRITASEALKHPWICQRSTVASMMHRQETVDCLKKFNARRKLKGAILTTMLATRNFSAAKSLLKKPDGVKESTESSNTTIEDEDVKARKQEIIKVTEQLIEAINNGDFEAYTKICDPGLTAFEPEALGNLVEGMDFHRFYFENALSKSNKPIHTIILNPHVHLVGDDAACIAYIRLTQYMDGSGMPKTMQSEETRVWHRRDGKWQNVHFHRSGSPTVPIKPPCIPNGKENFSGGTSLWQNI

KinomeScan kinase panel [4] = target: T4, KinomeScan kinase panel (Homo sapiens, UniProt Q9BZL6); settings: read-out: score (%)
T4 construct: purchased DiscoveRx (KinomeScan)
T4 sequence (Q9BZL6 1-878): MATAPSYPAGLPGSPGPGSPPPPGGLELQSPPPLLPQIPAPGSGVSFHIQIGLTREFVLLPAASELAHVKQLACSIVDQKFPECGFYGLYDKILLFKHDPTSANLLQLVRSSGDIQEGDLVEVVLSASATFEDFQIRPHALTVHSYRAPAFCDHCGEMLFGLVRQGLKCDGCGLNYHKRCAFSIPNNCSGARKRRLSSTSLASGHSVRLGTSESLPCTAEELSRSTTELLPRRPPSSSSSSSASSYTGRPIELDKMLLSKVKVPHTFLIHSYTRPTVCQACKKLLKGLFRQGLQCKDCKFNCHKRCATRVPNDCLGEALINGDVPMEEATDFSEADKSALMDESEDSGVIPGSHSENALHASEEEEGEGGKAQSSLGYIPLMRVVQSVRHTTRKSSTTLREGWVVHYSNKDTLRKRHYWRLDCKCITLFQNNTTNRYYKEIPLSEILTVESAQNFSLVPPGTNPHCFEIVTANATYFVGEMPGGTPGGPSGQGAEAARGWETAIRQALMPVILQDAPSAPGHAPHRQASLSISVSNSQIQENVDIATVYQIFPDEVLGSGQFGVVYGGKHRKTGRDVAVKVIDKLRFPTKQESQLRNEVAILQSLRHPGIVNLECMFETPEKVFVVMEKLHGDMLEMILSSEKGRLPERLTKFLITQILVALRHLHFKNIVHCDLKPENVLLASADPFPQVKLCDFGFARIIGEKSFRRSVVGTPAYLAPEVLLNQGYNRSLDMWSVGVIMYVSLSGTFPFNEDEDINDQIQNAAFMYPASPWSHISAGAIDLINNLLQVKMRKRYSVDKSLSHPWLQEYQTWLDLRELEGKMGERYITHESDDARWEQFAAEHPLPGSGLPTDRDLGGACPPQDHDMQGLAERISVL

SMILES	remaining binding at 10 µM (KinomeScan kinase panel [1]) [%]	remaining binding at 10 µM (KinomeScan kinase panel [2]) [%]	remaining binding at 10 µM (KinomeScan kinase panel [3]) [%]	remaining binding at 10 µM (KinomeScan kinase panel [4]; PRKD2, 10 µM) [%]	remaining binding at 10 µM (KinomeScan kinase panel [4]; kinase PRKD2, 10 µM) [%]
CCN1CCN(Cc2ccc(NC(=O)c3ccc(C)c(NC(=O)c4cncc(-c5cccs5)c4)c3)cc2C(F)(F)F)CC1 [ALW-II-41-27]	> 30	0.1	> 30	> 30	–
CCN1CCN(Cc2ccc(NC(=O)c3ccc(C)c(/C=C/c4cnc5[nH]ccc5c4Cl)c3)cc2C(F)(F)F)CC1 [HG-6-63-01, (E)-3-(2-(4-chloro-1H-pyrrolo[2,3-b]pyridin-5-yl)vinyl)-N-(4-((4-ethylpiperazin-1-yl)methyl)-3-(trifluoromethyl)phenyl)-4-methylbenzamide]	> 30	0.1	> 30	32	–
CCN1CCN(Cc2ccc(NC(=O)c3ccc(C)c(C#Cc4cccnc4)c3)cc2C(F)(F)F)CC1 [XMD15-44]	76	0	> 30	–	56
